Results published in US20150005306A1 (priority 2013, published 2015).
“Also recorded” adds a separate entry of the source.

Assays:
[1] = tested on: Alzheimer's disease transgenic mouse; assay: Fear conditioning-cued test; format: in vivo; settings: 1 mg/kg of each drug, after the 13 weeks of Example 1
Excerpt: (§1) To observe the effects of the combination of EPPS and donepezil, the experimental animal subjected to the Y-maze behavior test for 13 weeks in Example 1 was subjected to a fear conditioning test for testing fearful memory of space and sound.
(§2) The fear conditioning test was divided into a fear conditioning-contextual test that tests fearful memory of space and fear conditioning-cued test that tests fearful memory of sound.
(§3) The test included a pair of sound stimulation (CS(conditioned stimulus), 30 seconds, 85 dB, and 30 kHz) and electric shock (US(unconditioned stimulus), 1 second, and 0.5 mA), which was repeated twice. Each was performed with a term of 90 seconds and the mouse was taken out from the conditioning box 90 seconds after the last electric shock (US). The following tests were performed after 24 hours.
Cued test: To change the context after 24 hours of the contextual test, the mouse was put into a box other than the box used for the contextual test and was provided with a sound stimulation identical to the contextual test (electric shock was not provided) to measure freeze reactions. The results were used as a scale for fear response conditioned to the cues.

[2] = tested on: Alzheimer's disease transgenic mouse; assay: Fear conditioning-contextual test; format: in vivo; settings: 1 mg/kg of each drug, after the 13 weeks of Example 1
Excerpt: as §1, §2, §3
Contextual test: the experimental animal was maintained in the conditioning box and freeze response were measured without providing sound stimulation and electric shock, results of which were used as a scale of conditioned fearful reaction. The freeze reaction was defined as a motionless state, except for breathing.

[3] = tested on: Alzheimer's disease transgenic mouse; assay: Y-maze behavior test (spontaneous alternation); format: in vivo; settings: B6C3-Tg(APPswe, PSEN1dE9) mouse, 1 mg/kg of each drug orally every day, Y-maze once every week for 13 weeks
Description: To test the effects of a combination of EPPS and donepezil, a Y-maze behavior test for evaluating learning memory of an Alzheimer's disease transgenic mouse was performed.
10 months old B6C3-Tg(APPswe, PSEN1dE9)85Dbo/Mmjax (The Jackson Laboratory, the U.S.A.) was used as the Alzheimer's disease transgenic mouse, as an experimental animal. The experimental animal was divided into three groups, namely, a donepezil administered group, an EPPS administered group, and a combination of donepezil and EPPS administered group were orally administered with respective drugs everyday in the amounts shown in Table 1 below and the Y-maze test was performed once every week for 13 weeks. As a control group, a transgenic mouse that was not administered with a drug was used as a negative control group and a normal mouse that was not administered with a drug was used as a positive control group.
The Y-maze instrument includes a maze made of a black acrylic board [branches: width 6 cm, length 40 cm, and height 12 cm] having a Y-shape in which all corners were blocked and each branch was disposed at a uniform angle of 120°. […] Frequencies and sequences of the experimental animal moving into each branch were measured to evaluate spontaneous alternation (%). […]

[4] = tested on: β-amyloid fibrils or oligomers; settings: as disclosed in a research paper; cited from earlier work

SMILES	Average freeze response, cued test [1]	Average freeze response, contextual test [2]	improvement in cognitive skills (normalized % alternation rate, FIG. 1) [3]	effect on accumulation of β-amyloid fibrils or oligomers [4]
COc1cc2c(cc1OC)C(=O)C(CC1CCN(Cc3ccccc3)CC1)C2 (stereo not shown) [donepezil, reference compound]	58.9167	16.602	initially showed a rapid improvement in cognitive skills, but the improvement reached peak at 5 weeks and decreased at 7 weeks; also recorded: rapid but short-term improvement in cognitive skills	
O=S(=O)(O)CCCN1CCN(CCO)CC1 [EPPS, N-(2-hydroxyethyl)piperazine-N′(3-propanesulfonic acid)]	55.1042	34.437	gradual improvement in the cognitive skills compared with that of the donepezil administered group; also recorded: reached the same level of cognitive skills as the donepezil administered group at 10 weeks; also recorded: long-term improvement in cognitive skills but a slower improvement compared with donepezil and a lower improvement compared with the combination of EPPS and donepezil	inhibits the accumulation of β-amyloid fibrils or oligomers and decomposes the accumulated β-amyloid fibrils or oligomers
